# Assay results taken from article PMC7481357, “N-terminal Myristoylation Enhanced the Antimicrobial Activity of Antimicrobial Peptide PMAP-36PW” (Frontiers in Cellular and Infection Microbiology, 2020).
# Residues, ends and D or L forms follow the SMILES beside them. *: point of attachment. Myristoyl = CCCCCCCCCCCCCC(=O)*
# Legend:
# [1] = test system: S. aureus ATCC 25923 and P. aeruginosa GIM 1.551; test: Thermal stability testing (boiling, then inhibition zone assay); type: cell-based, Staphylococcus aureus; Pseudomonas aeruginosa; conditions: boiled 120 min, 10 μg peptide, n = 5
# Procedure: For thermal stability analysis, the Myr-36PW and peptides were boiled for 10, 20, 30, 40, 50, 60, 90, and 120 min as reported (Ebbensgaard et al., [2015]) with unboiled peptides as controls. Inhibition zone assay was performed against S. aureus ATCC 25923 and P. aeruginosa GIM 1.551. The inhibition zone diameters of peptides (10 μg, 1 μg/μL) were measured after incubation for 18 h at 37°C, and the inhibition curve was drawn.
# Figure 3 Thermal stability determination of Myr-36PW by boiling. Thermal stability test of Myr-36PW and its analogs by boiling in different times (0, 10, 20, 30, 40, 50, 60, 90, and 120 min) via disk diffusion method. (A) (S. aureus ATCC 25923) and (B) (P. aeruginosa GIM 1.551) show the thermal stability curves of PMAP-36, PMAP-36PW, and Myr-36PW. The diameter of the standard disk is 6 mm. Data represent the mean ± SD (n = 5).
# P. aeruginosa GIM 1.551 = type: cell-based, Pseudomonas aeruginosa; conditions: GIM 1.551, 1 h
# Procedure: The effects of abiotic factors on the antibacterial activity of Myr-36PW were investigated by MIC assay (Xi et al., [2013]; Zhong et al., [2019]). S. aureus ATCC 25923 and P. aeruginosa GIM 1.551 overnight cultures were diluted to 1 × 10^6 CFU/mL, and the MICs of peptides in MHB with different concentration of physiological salts (150 mM NaCL, 2 mM CaCL2) were determined. And after the peptides incubated in 10% mice serum for 1 h at 37°C, MICs of peptides against S. aureus ATCC 25923 and P. aeruginosa GIM 1.551 were determined. The MICs in MHB in the absence of physiological salts and serum were used as the control group.
# Salt and serum stability in vitro were indicated by MIC assay. The concentrations of NaCl and CaCl2 were physiological concentration. 10% mice serum was inactivated by heat treatment for 15 min at 60 ℃。The control group was measured in the absence of physiological salts or serum in MHB.
compound,measurement,setting,value
CCCCCCCCCCCCCC(=O)NCC(=O)NCC(=O)N[C@@H](CCCNC(=N)N)C(=O)N[C@@H](Cc1ccccc1)C(=O)N[C@@H](CCCNC(=N)N)C(=O)N[C@@H](CCCNC(=N)N)C(=O)N[C@@H](CC(C)C)C(=O)N[C@@H](CCCNC(=N)N)C(=O)N[C@@H](CCCCN)C(=O)N[C@@H](CCCCN)C(=O)N[C@H](C(=O)N[C@@H](CCCNC(=N)N)C(=O)N[C@@H](CCCCN)C(=O)N[C@@H](CCCNC(=N)N)C(=O)N[C@@H](CC(C)C)C(=O)N[C@@H](CCCCN)C(=O)N[C@@H](CCCCN)C(=O)N[C@H](C(=O)NCC(=O)N[C@@H](CCCCN)C(=O)N[C@H](C(=O)N[C@@H](CC(C)C)C(=O)N[C@@H](CCCCN)C(=O)N[C@@H](Cc1c[nH]c2ccccc12)C(=O)N[C@H](C(=O)N[C@@H](Cc1c[nH]c2ccccc12)C(=O)N[C@@H](Cc1c[nH]c2ccccc12)C(=O)N[C@H](C(=O)N[C@H](C(=O)NCC(=O)N[C@@H](CO)C(=O)N[C@H](C(=O)N1CCC[C@H]1C(=O)N[C@@H](CC(C)C)C(=O)NCC(=O)N[C@@H](CS)C(=O)NCC(=O)O)[C@@H](C)CC)C(C)C)[C@@H](C)CC)[C@@H](C)CC)C(C)C)[C@@H](C)CC)[C@@H](C)O [Myr-36PW] (Myristoyl-GGRFRRLRKKTRKRLKKIGKVLKWIWWIVGSIPLGCG-OH; C-terminus assumed),Antimicrobial activity after boiling (thermal stability),[1],retaining high bacterial inhibition
same,"MICs, CaCl2",P. aeruginosa GIM 1.551,0.5 µg/mL
same,"MICs, Control",P. aeruginosa GIM 1.551,0.25 µg/mL
same,"MICs, NaCl",P. aeruginosa GIM 1.551,0.25 µg/mL
same,"MICs, Serum",P. aeruginosa GIM 1.551,0.5 µg/mL
